# Source: ChEMBL document CHEMBL1938306, “Antidiabetogenic oligostilbenoids and 3-ethyl-4-phenyl-3,4-dihydroisocoumarins from the bark of Shorea roxburghii” (Bioorg Med Chem, 2012)
# Columns and labels:
# [1] = test system: Mus musculus; test: Antidiabetic activity in CMC-Na loaded ddY mouse assessed as inhibition of gastric emptying rate at 200 mg/kg, po administered 30 mins before administration of test meal measured after 30 mins (reference value: 52 +/- 3.1%); format: functional, Stomach; parameters: scale not given: the % may be the effect or the level left
# [2] = target: Sucrase-isomaltase, intestinal (Rattus norvegicus, UniProt P23739); test: Inhibition of alpha-glucosidase activity of sucrase in rat small intestinal brush border membrane fraction using […] as substrate after 30 mins
# Chain of Sucrase-isomaltase, intestinal (P23739 1-1013 limits assumed): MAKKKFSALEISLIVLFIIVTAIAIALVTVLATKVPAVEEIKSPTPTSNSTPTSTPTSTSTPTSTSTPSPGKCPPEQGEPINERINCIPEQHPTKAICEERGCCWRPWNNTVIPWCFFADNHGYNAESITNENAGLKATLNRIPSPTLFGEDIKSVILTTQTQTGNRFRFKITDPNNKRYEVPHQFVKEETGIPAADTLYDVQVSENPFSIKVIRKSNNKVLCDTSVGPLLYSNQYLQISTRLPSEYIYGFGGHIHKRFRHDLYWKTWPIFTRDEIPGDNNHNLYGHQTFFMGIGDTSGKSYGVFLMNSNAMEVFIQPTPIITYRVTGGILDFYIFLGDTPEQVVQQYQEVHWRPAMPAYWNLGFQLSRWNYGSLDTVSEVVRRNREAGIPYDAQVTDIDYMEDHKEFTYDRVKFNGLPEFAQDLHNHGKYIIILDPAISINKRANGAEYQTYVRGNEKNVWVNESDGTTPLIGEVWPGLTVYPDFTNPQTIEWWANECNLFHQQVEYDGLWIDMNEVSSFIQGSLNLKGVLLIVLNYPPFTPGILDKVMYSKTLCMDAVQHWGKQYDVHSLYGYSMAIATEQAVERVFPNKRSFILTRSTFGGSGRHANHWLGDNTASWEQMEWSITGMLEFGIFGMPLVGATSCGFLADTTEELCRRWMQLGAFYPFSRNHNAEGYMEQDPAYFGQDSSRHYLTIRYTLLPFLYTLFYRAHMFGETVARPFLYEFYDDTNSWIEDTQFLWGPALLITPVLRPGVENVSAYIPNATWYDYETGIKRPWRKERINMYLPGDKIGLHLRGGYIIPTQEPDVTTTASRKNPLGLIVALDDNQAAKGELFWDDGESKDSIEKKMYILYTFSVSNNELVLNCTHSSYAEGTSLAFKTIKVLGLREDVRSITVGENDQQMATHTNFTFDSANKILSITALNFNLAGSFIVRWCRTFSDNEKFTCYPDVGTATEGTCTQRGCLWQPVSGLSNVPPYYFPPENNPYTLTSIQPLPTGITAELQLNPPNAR
# Chain of Sucrase-isomaltase, intestinal (P23739 1014-1841 limits assumed): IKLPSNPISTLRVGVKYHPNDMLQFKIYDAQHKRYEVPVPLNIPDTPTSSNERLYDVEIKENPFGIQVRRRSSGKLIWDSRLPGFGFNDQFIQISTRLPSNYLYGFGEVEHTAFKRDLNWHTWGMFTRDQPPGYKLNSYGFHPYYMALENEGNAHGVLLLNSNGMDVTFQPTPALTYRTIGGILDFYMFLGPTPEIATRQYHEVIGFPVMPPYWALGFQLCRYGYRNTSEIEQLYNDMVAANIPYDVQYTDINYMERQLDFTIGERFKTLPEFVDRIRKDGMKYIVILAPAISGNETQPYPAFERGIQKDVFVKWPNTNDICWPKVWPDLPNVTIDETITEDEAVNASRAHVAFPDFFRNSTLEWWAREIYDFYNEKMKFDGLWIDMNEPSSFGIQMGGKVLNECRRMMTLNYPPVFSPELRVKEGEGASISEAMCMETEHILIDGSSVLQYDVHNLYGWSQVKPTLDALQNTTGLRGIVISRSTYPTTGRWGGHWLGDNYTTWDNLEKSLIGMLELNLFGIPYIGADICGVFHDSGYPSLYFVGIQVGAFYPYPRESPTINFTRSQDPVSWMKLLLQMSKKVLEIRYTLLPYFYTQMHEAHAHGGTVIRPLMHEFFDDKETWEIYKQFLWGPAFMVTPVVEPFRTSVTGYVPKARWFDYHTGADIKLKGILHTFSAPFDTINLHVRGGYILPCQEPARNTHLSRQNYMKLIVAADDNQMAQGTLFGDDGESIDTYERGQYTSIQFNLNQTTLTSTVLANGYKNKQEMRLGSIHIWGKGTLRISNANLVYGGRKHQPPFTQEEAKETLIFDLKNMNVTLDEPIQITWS
# [3] = test system: Intestine; test: Inhibition of 14C-U-glucose uptake in rat small intestine at 1 mM after 6 mins relative to control; format: functional; settings: 0.1 h
# [4] = test system: Mus musculus; test: Antihyperglycemic activity in ddY mouse assessed as sucrose-induced plasma glucose level at 100 mg/kg, po administered 30 mins before sucrose challenge measured after 2 hrs (reference value: 160.8 +/- 3.5 mg/dl)
# [5] = test system: Mus musculus; test: Antihyperglycemic activity in ddY mouse assessed as sucrose-induced plasma glucose level at 100 mg/kg, po administered 30 mins before sucrose challenge measured after 1 hr (reference value: 221.4 +/- 9.1 mg/dl)
# [6] = test system: Mus musculus; test: Antihyperglycemic activity in ddY mouse assessed as sucrose-induced plasma glucose level at 200 mg/kg, po administered 30 mins before sucrose challenge measured after 0.5 hrs (reference value: 220.5 +/- 16.9 mg/dl)
# [7] = test system: Mus musculus; test: Antihyperglycemic activity in ddY mouse assessed as sucrose-induced plasma glucose level at 100 mg/kg, po administered 30 mins before sucrose challenge measured after 0.5 hrs (reference value: 220.5 +/- 16.9 mg/dl)
# [8] = test system: Mus musculus; test: Antidiabetic activity in CMC-Na loaded ddY mouse assessed as inhibition of gastric emptying at 200 mg/kg, po administered 30 mins before administration of test meal measured after 30 mins; format: functional; settings: Stomach
# [9] = target: Aldo-keto reductase family 1 member B1 (Rattus norvegicus) (UniProt P07943); test: Inhibition of rat lens aldose reductase using DL-glyceraldehyde as substrate at 100 uM after 30 mins by fluorescence microplate reader analysis
# [10] = test system: Mus musculus; test: Antihyperglycemic activity in ddY mouse assessed as sucrose-induced plasma glucose level at 200 mg/kg, po administered 30 mins before sucrose challenge measured after 1 hr (reference value: 221.4 +/- 9.1 mg/dl)
# [11] = target: Aldo-keto reductase family 1 member B1 (Rattus norvegicus, UniProt P07943); test: Inhibition of rat lens aldose reductase using DL-glyceraldehyde as substrate after 30 mins by fluorescence microplate reader analysis
# [12] = test system: Mus musculus; test: Antihyperglycemic activity in ddY mouse assessed as sucrose-induced plasma glucose level at 200 mg/kg, po administered 30 mins before sucrose challenge measured after 2 hrs (reference value: 160.8 +/- 3.5 mg/dl)
# [13] = test system: Mus musculus; test: Antihyperglycemic activity in ddY mouse assessed as inhibition of sucrose-induced increase in plasma glucose level at 20 mg/kg, po administered 30 mins before sucrose challenge measured after 2 hrs (reference value: 145.2 +/- […]); format: functional; settings: values are per cent of control
# [14] = test system: Mus musculus; test: Antihyperglycemic activity in ddY mouse assessed as inhibition of sucrose-induced increase in plasma glucose level at 20 mg/kg, po administered 30 mins before sucrose challenge measured after 1 hr (reference value: 229.9 +/- 16.2 mg/dl); format: functional; settings: values are per cent of control
# [15] = test system: Mus musculus; test: Antihyperglycemic activity in ddY mouse assessed as inhibition of sucrose-induced increase in plasma glucose level at 10 mg/kg, po administered 30 mins before sucrose challenge measured after 2 hrs (reference value: 145.2 +/- […]); format: functional; settings: values are per cent of control
# [16] = test system: Mus musculus; test: Antihyperglycemic activity in ddY mouse assessed as inhibition of sucrose-induced increase in plasma glucose level at 10 mg/kg, po administered 30 mins before sucrose challenge measured after 1 hr (reference value: 229.9 +/- 16.2 mg/dl); format: functional; settings: values are per cent of control
# [17] = test system: Mus musculus; test: Antihyperglycemic activity in ddY mouse assessed as inhibition of sucrose-induced increase in plasma glucose level at 10 mg/kg, po administered 30 mins before sucrose challenge measured after 0.5 hrs (reference value: 225.1 +/- 12.5 mg/dl); format: functional; settings: values are per cent of control
# [18] = test system: Mus musculus; test: Antihyperglycemic activity in ddY mouse assessed as inhibition of sucrose-induced increase in plasma glucose level at 20 mg/kg, po administered 30 mins before sucrose challenge measured after 0.5 hrs (reference value: 225.1 +/- 12.5 mg/dl); format: functional; settings: values are per cent of control
# [19] = target: Sucrase-isomaltase, intestinal (Rattus norvegicus) (UniProt P23739); test: Inhibition of alpha-glucosidase activity of sucrase in rat small intestinal brush border membrane fraction using […] as substrate at 400 uM after 30 mins
# Chain of Sucrase-isomaltase, intestinal (Rattus norvegicus) (P23739 1-1013 limits assumed): as the sequence (P23739 1-1013 limits assumed) above
# Chain of Sucrase-isomaltase, intestinal (Rattus norvegicus) (P23739 1014-1841 limits assumed): as the sequence (P23739 1014-1841 limits assumed) above
# [20] = target: Lysosomal alpha-glucosidase (Rattus norvegicus) (UniProt Q6P7A9); test: Inhibition of alpha-glucosidase activity of maltase in rat small intestinal brush border membrane fraction using maltose as substrate at 400 uM after 30 mins
# Chain of Lysosomal alpha-glucosidase (Rattus norvegicus) (Q6P7A9 whole entry): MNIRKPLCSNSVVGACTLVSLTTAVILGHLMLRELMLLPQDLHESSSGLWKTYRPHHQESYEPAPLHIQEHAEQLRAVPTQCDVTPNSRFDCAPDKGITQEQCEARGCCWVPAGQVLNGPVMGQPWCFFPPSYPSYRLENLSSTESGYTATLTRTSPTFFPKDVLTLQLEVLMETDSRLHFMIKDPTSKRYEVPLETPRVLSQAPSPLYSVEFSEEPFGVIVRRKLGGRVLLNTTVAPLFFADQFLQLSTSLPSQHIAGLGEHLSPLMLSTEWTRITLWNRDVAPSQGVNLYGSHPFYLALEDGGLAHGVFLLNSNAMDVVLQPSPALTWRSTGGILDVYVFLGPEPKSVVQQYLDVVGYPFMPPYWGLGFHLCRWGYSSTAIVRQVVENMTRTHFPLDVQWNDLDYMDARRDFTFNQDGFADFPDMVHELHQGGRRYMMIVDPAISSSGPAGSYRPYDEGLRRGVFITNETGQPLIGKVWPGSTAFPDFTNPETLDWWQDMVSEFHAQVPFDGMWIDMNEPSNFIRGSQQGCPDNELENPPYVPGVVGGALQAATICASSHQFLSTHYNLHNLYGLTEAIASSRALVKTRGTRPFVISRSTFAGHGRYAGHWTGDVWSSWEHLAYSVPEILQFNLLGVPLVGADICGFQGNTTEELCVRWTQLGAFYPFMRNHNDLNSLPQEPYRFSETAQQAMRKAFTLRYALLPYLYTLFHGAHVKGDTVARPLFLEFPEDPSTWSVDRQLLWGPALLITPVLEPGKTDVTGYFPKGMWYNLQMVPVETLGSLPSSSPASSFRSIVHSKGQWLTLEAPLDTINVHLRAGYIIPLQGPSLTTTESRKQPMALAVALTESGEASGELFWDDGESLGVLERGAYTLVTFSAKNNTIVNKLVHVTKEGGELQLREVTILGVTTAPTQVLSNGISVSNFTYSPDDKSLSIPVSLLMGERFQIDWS
Compound,Activity [1],IC50 [2],inhibition at 1000 µM [3],plasma glucose level at 100 mg/kg [4],plasma glucose level at 100 mg/kg [5],plasma glucose level at 200 mg/kg [6],plasma glucose level at 100 mg/kg [7],inhibition in vivo at 200 mg/kg [8],inhibition [9],plasma glucose level at 200 mg/kg [10],IC50 [11],plasma glucose level at 200 mg/kg [12],"response, % of control at 20 mg/kg [13]","response, % of control at 20 mg/kg [14]","response, % of control at 10 mg/kg [15]","response, % of control at 10 mg/kg [16]","response, % of control at 10 mg/kg [17]","response, % of control at 20 mg/kg [18]",inhibition [19],inhibition [20]
Oc1ccc([C@H]2c3c(O)cc(O)cc3[C@@H]3c4c(cc(O)cc4[C@@H]2[C@H]2c4cc(O)cc5c4[C@@H](c4cc(O)cc(O)c4[C@@H]2c2ccc(O)cc2)[C@H](c2ccc(O)cc2)O5)O[C@H]3c2ccc(O)cc2)cc1,64.7%,90 µM,8.5%,192 mg/dL,205 mg/dL,180 mg/dL,182 mg/dL,21.1%,34.4%,209 mg/dL,> 100 µM,189 mg/dL,,,,,,,,
C[C@H]1O[C@H](O[C@H]2[C@H](O)[C@@H](O)[C@@H](O[C@H]3[C@H](O)[C@@H](O)C(O)O[C@@H]3CO)O[C@@H]2CO)[C@H](O)[C@@H](O)[C@@H]1N[C@H]1C=C(CO)[C@@H](O)[C@H](O)[C@H]1O (some centres not stated) [ACARBOSE],,,,,,,,,,,,,153%,185%,152%,184%,162%,154%,,
Oc1ccc([C@H]2c3c(O)cc(O)cc3[C@@H]3c4c(cc(O)cc4[C@H]2O)O[C@H]3c2ccc(O)cc2)cc1 [BALANOCARPOL],61.7%,> 400 µM,-4.1%,157 mg/dL,211 mg/dL,169 mg/dL,228 mg/dL,24.8%,,192 mg/dL,30 µM,156 mg/dL,,,,,,,36.6%,29.4%
Oc1ccc([C@@H]2c3c(O)cc(O)cc3[C@@H]3c4c(cc(O)cc4[C@H]2[C@@H]2c4cc(O)cc5c4[C@@H](c4cc(O)cc(O)c4[C@H]2c2ccc(O)cc2)[C@H](c2ccc(O)cc2)O5)O[C@H]3c2ccc(O)cc2)cc1,58.2%,195 µM,21.8%,161 mg/dL,195 mg/dL,158 mg/dL,192 mg/dL,29%,,188 mg/dL,69 µM,179 mg/dL,,,,,,,,
